According to paper PMC8812735, “Discovery of triterpenoids as potent dual inhibitors of pancreatic lipase and human carboxylesterase 1” (Journal of Enzyme Inhibition and Medicinal Chemistry, 2022):

What was measured:
[1] = biological target: T1, Butyrylcholinesterase (BuChE) (Homo sapiens, UniProt P06276); experiment: Inhibition of BuChE-mediated BTCH hydrolysis; format: biochemical
T1 construct: from tissue; host or cells: human serum
Description: To assay the inhibitory effects of triterpenoids on Butyrylcholinesterase (BuChE), butyrylthiocholine (BTCH) was used as a substrate for BuChE, The total volume of the system was 100 µL. Including 2 µL DMSO/inhibitor, 2 µL human serum, 84 µL buffered PBS (pH 7.4, 0.1 M), 10 µL substrate iodised butyrylthiocholine (0.3 mM, final concentration) and 2 µL developer 5–5′-dithiobis(2-nitrobenzoic acid) (DTNB) (1 mM, final concentration). The assay protocol of […] was depicted previously. All measurements were performed in triplicates.

[2] = biological target: dipeptidyl peptidase-IV (DPP-IV) (Homo sapiens, UniProt P27487); experiment: Inhibition of DPP-IV-mediated GP-BAN hydrolysis; format: biochemical; settings: substrate: GP-BAN
Chain of dipeptidyl peptidase-IV (DPP-IV) (P27487 whole entry): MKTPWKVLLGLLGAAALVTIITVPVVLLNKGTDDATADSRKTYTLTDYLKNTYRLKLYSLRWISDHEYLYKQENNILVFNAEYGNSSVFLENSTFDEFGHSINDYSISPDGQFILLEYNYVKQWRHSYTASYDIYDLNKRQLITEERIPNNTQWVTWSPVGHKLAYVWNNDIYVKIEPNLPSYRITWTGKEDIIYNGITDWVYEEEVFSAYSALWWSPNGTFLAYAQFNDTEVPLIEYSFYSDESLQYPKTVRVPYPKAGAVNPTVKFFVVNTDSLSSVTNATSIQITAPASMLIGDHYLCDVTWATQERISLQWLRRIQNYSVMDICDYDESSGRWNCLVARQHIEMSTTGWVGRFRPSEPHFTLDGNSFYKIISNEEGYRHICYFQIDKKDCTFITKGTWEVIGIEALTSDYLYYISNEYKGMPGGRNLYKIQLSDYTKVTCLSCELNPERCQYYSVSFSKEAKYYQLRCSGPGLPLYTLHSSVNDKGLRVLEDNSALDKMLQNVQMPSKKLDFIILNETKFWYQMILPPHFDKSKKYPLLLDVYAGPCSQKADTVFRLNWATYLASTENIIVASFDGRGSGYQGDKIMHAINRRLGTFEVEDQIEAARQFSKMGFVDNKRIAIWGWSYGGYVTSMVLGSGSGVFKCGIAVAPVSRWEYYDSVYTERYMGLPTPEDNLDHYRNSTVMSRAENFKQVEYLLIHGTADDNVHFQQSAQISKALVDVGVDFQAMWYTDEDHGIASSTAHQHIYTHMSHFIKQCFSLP
Description: The details for DPP-IV inhibition has been reported previously[49]^,[50]. The fluorescent signal of the hydrolytic product (BAN) was measured by a fluorescence microplate reader at an excitation wavelength of 430 nm, an emission wavelength of 535 nm (gain = 500).

[3] = biological target: T2, Pancreatic lipase (PL) (Sus scrofa, UniProt P00591); experiment: Inhibition of PL-mediated 4-MUO hydrolysis; format: biochemical; settings: for Inhibition mode PL / Ki / IC50: 4-MUO substrate; for Ki: Lineweaver–Burk second plot; for IC50: mean ± SD (n = 3); for Reversibility of PL inhibition: dose-response curves not affected by pre-incubation times
T2 construct: purchased Sigma Aldrich type II, Lot.SLBN9099V
T2 sequence (P00591 1-450): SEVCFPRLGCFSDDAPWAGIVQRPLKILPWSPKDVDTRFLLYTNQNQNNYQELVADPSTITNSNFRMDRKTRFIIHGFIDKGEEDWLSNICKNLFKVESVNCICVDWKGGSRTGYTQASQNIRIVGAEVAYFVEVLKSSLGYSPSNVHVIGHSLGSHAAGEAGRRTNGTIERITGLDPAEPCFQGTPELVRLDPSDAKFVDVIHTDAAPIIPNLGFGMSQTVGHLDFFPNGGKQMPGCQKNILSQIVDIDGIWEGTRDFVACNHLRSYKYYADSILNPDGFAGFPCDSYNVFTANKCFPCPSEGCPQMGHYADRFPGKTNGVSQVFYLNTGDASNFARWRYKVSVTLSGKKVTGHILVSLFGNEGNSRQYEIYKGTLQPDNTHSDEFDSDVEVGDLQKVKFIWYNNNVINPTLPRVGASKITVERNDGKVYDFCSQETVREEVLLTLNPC
Description: In addition, the background fluorescence in the absence of an enzyme source (PL) (add the same amount of citrate-Na2HPO4 buffer) was measured. […] Then start the reaction by adding 2 µL of 4-MUO probe (3 µM, final concentration). The fluorescence signal of 4-MU (hydrolytic metabolite) was detected by multi-mode microplate reader (SpectraMax M4, Molecular Devices, Urstein, Austria) with continuous oscillation for 20 min and recorded and analysed at 60 s intervals. The excitation wavelength and emission wavelength of 4-MU were set at 340 nm and 460 nm, respectively, and the gain value was 500.
Subsequently, various concentrations of substrates (selected according to Km) and different concentrations of inhibitors were used to determine the corresponding reaction rate, and the second slope graph of the Lineweaver–Burk diagram was used as a function of the inhibitor to calculate the corresponding inhibition constant (Ki) value. All kinetic data were fitted by the following kinetic equations (a–c), for competitive (a), non-competitive (b) and mixed inhibition (c): (a) V=(VmaxS)/[Km(1+I/Ki)+S] (b) V=(VmaxS)/[(Km+S)×(1+I/Ki)] (c) V=(VmaxS)/[(Km+S)×(1+I/αKi)] where V is the hydrolytic velocity of the reaction, Vmax is the maximum velocity. S and I are substrate (4-MUO, NLMe) and inhibitor (compound 39/41) concentrations, respectively. Ki is the inhibition constant of the tested inhibitor against the target PL and hCES1A; Km is the Michaelis constant (the substrate concentration at half of the Vmax).
All measurements were made in triplicate and the data obtained in the experiment were shown as mean ± SD.

[4] = system: 3T3-L1 cells; experiment: Cytotoxicity assay (CCK-8) in 3T3-L1 cells; format: cell-based; settings: CCK-8, 48 h, 0–100 µM
Description: The effect of compounds 39 and 41 on cell viability of the 3T3-L1cells was measured using Cell Counting Kit-8 (Dalian Meilun Biotechnology Co., Ltd., Dalian, China). Briefly, 3T3-L1 cells (5 × 10^4/mL, 100 µL) were seeded in the 96-well plate, After 24 h incubation, then the cells were treated with different concentrations of compounds 39 and 41 (0–100 µM) for another 48 h. Then, CCK-8 (10%, v/v, 100 µL) was added to each well and incubated at 37 °C for additional 2 h. The absorbance was determined by microplate reader at 450 nm. The percentage of cell viability was calculated towards control. Each condition included replicate wells with at least four independent repeats.

[5] = biological target: T3, hCES2A (Homo sapiens, UniProt O00748); experiment: Inhibition of hCES2A-mediated FD hydrolysis; format: biochemical; settings: FD substrate, mean ± SD (n = 3); read-out: IC50 (µM) hCES2A
T3 sequence (O00748 27-559): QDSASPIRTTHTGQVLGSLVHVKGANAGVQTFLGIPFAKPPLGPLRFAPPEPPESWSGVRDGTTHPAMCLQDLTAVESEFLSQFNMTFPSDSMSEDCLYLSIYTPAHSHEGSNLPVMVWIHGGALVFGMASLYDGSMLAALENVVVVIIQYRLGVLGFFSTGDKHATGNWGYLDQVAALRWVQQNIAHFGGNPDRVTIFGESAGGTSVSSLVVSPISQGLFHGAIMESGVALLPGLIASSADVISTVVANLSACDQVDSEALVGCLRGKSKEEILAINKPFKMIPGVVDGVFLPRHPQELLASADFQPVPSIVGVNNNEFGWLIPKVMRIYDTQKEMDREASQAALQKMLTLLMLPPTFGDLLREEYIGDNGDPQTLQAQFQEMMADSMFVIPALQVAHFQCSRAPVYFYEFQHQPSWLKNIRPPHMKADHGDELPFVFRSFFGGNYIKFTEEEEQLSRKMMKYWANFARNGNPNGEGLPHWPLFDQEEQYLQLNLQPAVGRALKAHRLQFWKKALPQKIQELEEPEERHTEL
From the text: […] (FD) was used as the hCES2A specific probe substrate to assay the inhibitory effect of natural triterpenoids on hCES2A. The entire detailed operation process refers to the previously reported method, and finally the FD mixture was put into the multi-mode microplate reader for analysis and detection.

T1 sequence (P06276 29-602): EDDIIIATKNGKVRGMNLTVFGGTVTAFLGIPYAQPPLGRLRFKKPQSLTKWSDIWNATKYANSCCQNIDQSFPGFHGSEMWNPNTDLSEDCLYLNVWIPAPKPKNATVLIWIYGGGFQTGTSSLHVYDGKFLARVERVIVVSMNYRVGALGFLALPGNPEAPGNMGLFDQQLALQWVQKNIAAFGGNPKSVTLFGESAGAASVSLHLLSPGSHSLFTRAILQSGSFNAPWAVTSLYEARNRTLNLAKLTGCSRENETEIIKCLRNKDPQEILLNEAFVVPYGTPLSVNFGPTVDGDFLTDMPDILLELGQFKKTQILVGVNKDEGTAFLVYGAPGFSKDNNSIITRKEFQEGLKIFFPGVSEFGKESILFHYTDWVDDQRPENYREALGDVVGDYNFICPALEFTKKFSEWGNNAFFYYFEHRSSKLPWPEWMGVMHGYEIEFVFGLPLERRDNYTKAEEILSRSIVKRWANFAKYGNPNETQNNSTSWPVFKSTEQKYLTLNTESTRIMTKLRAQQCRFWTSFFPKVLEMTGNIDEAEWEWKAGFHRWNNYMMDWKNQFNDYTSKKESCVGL

Compound	IC50 [1] [µM]	IC50 [2] [µM]	Inhibition mode PL [3]	Ki [3] [µM]	IC50 [3] [µM]	Reversibility of PL inhibition [3]	concentration below which almost non-toxic to 3T3-L1 (cell viability) [4]	IC50 [5] [µM]
CC1(C)CCC2(C(=O)O)CCC3(C)C(=CCC4C5(C)C=C(O)C(=O)C(C)(C)C5CCC43C)C2C1 (stereo not shown) [Compound 39]	> 100	> 100	Mixed	1.45	2.13 ± 0.19	reversible inhibitors	below 20 µM	6.02 ± 0.75
CC(=O)OC1CCC2(C)C(CCC3(C)C2CC=C2C4C(C)C(C)CCC4(C(=O)O)CCC23C)C1(C)C (stereo not shown) [Compound 41]	> 100	> 100	Mixed	0.58	0.75 ± 0.12	reversible inhibitors	< 10 µM	5.02 ± 0.88
